Where two headings read alike, the source gives them in different places. Bounds are passed on as bounds.

Experimental findings from patent publication US20210395210A1, “INHIBITION OF BACTERIAL CHAPERONIN SYSTEMS” (THE TRUSTEES OF INDIANA UNIVERSITY, priority 2018, published 2021) are described below.

For one assay, the target named is T1, human HSP60/10 (Homo sapiens, UniProt P10809).
T1 construct: octa-Histidine tag (TEV-cleavable) (N, cleaved yes); made in house; host or cells: HSP60 in E. coli Rosetta 2 (DE3); HSP10 in Rosetta 2 (DE3) pLysS
In words: HSP60/10-mediated dMDH refolding assay. Type of assay: biochemical. Particulars: human HSP60/10-dMDH refolding assay. The method, then: Reagent preparation: For these assays, four primary reagent stocks were prepared: 1) GroEUES-dMDH or HSP60/10-dMDH binary complex stock; 2) ATP initiation stock; 3) EDTA quench stock; 4) MDH enzymatic assay stock. Denatured MDH (dMDH) was prepared by 2-fold dilution of MDH (5 mg/ml, soluble pig heart MDH from Roche, product #10127248001) with denaturant buffer (7 M guanidine-HCl, 200 mM Tris, pH 7.4, and 50 mM DTT). MDH was completely denatured by incubating at room temperature for 45 min. The binary complex solutions were prepared by slowly adding the dMDH stock to a stirring stock with GroEL (or HSP60) in folding buffer (50 mM Tris-HCl, pH 7.4, 50 mM KCl, 10 mM MgCl2, and 1 mM DTT), followed by addition of GroES (or HSP10). The binary complex stocks were prepared immediately prior to dispensing into the assay plates and had final protein concentrations of 83.3 nM GroEL (Mr 800 kDa) or HSP60 (Mr 400 kDa), 100 nM GroES or HSP10 (Mr 70 kDa), and 20 nM dMDH in folding buffer. For the ATP initiation stock, ATP solid was diluted into folding buffer to a final concentration of 2.5 mM. Quench solution contained 600 mM EDTA (pH 8.0). The MDH enzymatic assay stock consisted of 20 mM sodium mesoxalate and 2.4 mM NADH in reaction buffer (50 mM Tris-HCl, pH 7.4, 50 mM KCl, and 1 mM DTT).
Assay Protocol: First, 30 μL aliquots of the GroEL/ES-dMDH or HSP60/10-dMDH binary complex stocks were dispensed into clear, 384-well polystyrene plates. […] The chaperonin-mediated refolding cycles were initiated by addition of 20 μL of ATP stock (reagent concentrations during refolding cycle: 50 nM GroEL or HSP60, 60 nM GroES or HSP10, 12 nM dMDH, 1 mM ATP, and compounds of 100 μM to 46 nM, 3-fold dilution series). The refolding reactions were incubated at 37° C. […] Next, the assay was quenched by addition of 10 μL of the EDTA to final concentration of 100 mM. […] A340 nm measurements were recorded at 0.5 minutes (start point) and at successive time points until the amount of NADH consumed reached ˜90% (end point, generally between 20-35 minutes). The differences between the start and end point A340 values were used to calculate the % inhibition of the GroEL/ES or HSP60/10 machinery by the compounds. […] Results presented represent the averages of IC50 values obtained from at least quadriplicate (duplicate of duplicate) replicates.

The subject of assay [1] is Acinetobacter baumannii (ATCC 19606). In words: Bacterial proliferation assay, A. baumannii. Type of assay: cell-based. An excerpt:
Bacterial Strains: Enterococcus faecium—(Orla-Jensen) Schleifer and Kilpper-Balz strain NCTC 7171 (ATCC 19434); Drug sensitive Staphylococcus aureus—Rosenbranch strain Seattle 1945 (ATCC 25923); Methicillin resistant S. aureus (MRSA)—Rosenbach strain HPV107 (ATCC BAA-44); Klebsiella Pneumonia—(Schroeter) Trevisan strain NCTC 9633 (ATCC 13883); Acinetobacter baumannii—Bouvet and Grimont strain 2208 (ATCC 19606); Pseudomonas aeruginosa—(Schroeter) Migula strain NCTC 10332 (ATCC 10145); Enterobacter cloacae—E. cloacae, subsp. cloacae (Jordan) Hormaeche and Edwards strain CDC 442-68 (ATCC 13047).
Growth Media: All bacteria were grown in Brain Heart Infusion (BHI) broth/agar (Becton, Dickinson and Company). All liquid cultures were grown in BHI media supplemented with 25 mg/L Ca^2+ and 12.5 mg/L Mg^2+ to mimic free physiological concentrations of these cations. A 10 mg/mL Ca^2+ stock solution was prepared by dissolving 3.68 g of CaCl2.2H2O in 100 mL of deionized water, and a 10 mg/mL Mg^2+ stock solution was prepared by dissolving 8.36 g of MgCl2.6H2O in 100 mL deionized water. Both stock solutions were filter-sterilized using 0.2 μm pore size cellulose-acetate filters. 2.5 mL of the sterile 10 mg/mL Ca^2+ stock and 1.25 mL of the sterile 10 mg/mL Mg^2+ stock solutions were added per 1 L of autoclaved BHI medium to obtain 25 mg/L Ca^2+ and 12.5 mg/L Mg^2+ ions, respectively.
General Assay Protocol: Stock bacterial cultures were streaked onto BHI agar plates and grown overnight at 37° C. Fresh aliquots of broth were inoculated with single bacterial colonies and the cultures were grown overnight at 37° C. with shaking (240 rpm) in cation adjusted BHI media. The following morning, the overnight cultures were sub-cultured (1:5 dilution) into fresh aliquots of cation adjusted BHI media and grown at 37° C. for 1-2 hours with shaking. After 2 h, cultures were diluted into fresh media to achieve final OD600 readings of 0.017. Aliquots of these diluted cultures (30 μL) were added to clear, flat-bottom, 384-well polystyrene plates that were stamped with 0.5 μL of test compounds in 20 μL media. […] Plates were sealed with “Breathe Easy” oxygen permeable membranes (Diversified Biotech) and left to incubate at 37° C. without shaking (stagnant assay). OD600 nm readings were taken at either 6-8 h (S. aureus, MRSA, K. pneumonia, E. cloacae, and P. aeruginosa) or 24 h (E. faecium and A. baumannii). A second set of baseline control plates were prepared analogously, but without any bacteria added, to correct for possible compound absorbance and/or precipitation. Plates were then read at 600 nm using a Molecular Devices SpectraMax Plus384 microplate reader. […] Results presented represent the averages of EC50 values obtained from at quadriplicate (duplicate of duplicate) replicates.

Where [2] appears, read: read-out: HSP60/10-dMDH Refolding IC50.
The mark [3] stands for this setting: log(IC50) ± standard deviation, read-out: HSP60/10-dMDH Refolding Assay log(IC50) (converted).
The mark [4] stands for this setting: ATCC19606, 24 h, read-out: Bacterial Proliferation EC50 A. baumannii.
[5] abbreviates: ATCC19606, read-out: log(EC50) Bacterial Proliferation Assay A. baumannii (converted).
Setting [6] is: ATCC19606, OD600 at 24 h, read-out: Bacterial Proliferation EC50 A. baumannii.
Setting [7] is: ATCC19606, log of EC50 (μM scale), with standard deviation, read-out: log(EC50) Bacterial Proliferation Assay A. baumannii (converted).

T1 sequence (P10809 27-573): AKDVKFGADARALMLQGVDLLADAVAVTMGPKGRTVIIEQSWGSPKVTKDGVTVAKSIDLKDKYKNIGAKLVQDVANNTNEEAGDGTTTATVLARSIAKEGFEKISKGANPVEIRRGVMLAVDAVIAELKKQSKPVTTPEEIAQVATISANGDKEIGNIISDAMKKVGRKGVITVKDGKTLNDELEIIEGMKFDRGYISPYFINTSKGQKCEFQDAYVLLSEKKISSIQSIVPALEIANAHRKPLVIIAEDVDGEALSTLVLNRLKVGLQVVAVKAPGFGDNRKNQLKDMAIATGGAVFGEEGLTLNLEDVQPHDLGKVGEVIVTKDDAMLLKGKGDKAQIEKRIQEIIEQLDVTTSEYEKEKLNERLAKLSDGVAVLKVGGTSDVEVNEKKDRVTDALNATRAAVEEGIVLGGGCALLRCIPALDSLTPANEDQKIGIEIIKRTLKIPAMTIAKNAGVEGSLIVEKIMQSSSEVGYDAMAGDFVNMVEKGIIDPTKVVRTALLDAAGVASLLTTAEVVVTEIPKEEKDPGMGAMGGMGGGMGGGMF

Take `O=C(Nc1ccc(Sc2nc3ccccc3s2)c(Cl)c1)c1cc(Br)ccc1O` [Compound 3, N-(4-(Benzo[d]thiazol-2-ylthio)-3-chlorophenyl)-5-bromo-2-hydroxybenzamide]: the IC50 on human HSP60/10 (setting [2]) and at human HSP60/10 (setting [3]) was above 100 µM in each case. Moreover, the EC50 in assay [1] (setting [4]) and in assay [1] (setting [5]) was above 100 µM each time.
On to `CO[C@H]1/C=C/O[C@@]2(C)Oc3c(C)c(O)c4c(O)c(c(/C=N/N5CCN(C)CC5)c(O)c4c3C2=O)NC(=O)/C(C)=C\C=C\[C@H](C)[C@H](O)[C@@H](C)[C@@H](O)[C@@H](C)[C@H](OC(C)=O)[C@@H]1C` [Rifampicin, rifampicin, reference compound], for which the IC50 on human HSP60/10 (setting [2]) and at human HSP60/10 (setting [3]) was above 100 µM throughout. The values for the EC50 in assay [1] (setting [6]) and in assay [1] (setting [7]) were 1.3 µM and 1.32 µM, respectively.
Consider `COc1ccc(Br)cc1C(=O)Nc1ccc(Sc2nc3ccccc3s2)c(Cl)c1` [Compound 31, N-(4-(Benzo[d]thiazol-2-ylthio)-3-chlorophenyl)-5-bromo-2-methoxybenzamide], for which the IC50 on human HSP60/10 (setting [2]) and at human HSP60/10 (setting [3]) was above 100 µM in each case. The EC50 in assay [1] (setting [6]) and in assay [1] (setting [7]) was above 100 µM in each case.
Take `O=C(Nc1ccc(Sc2nc3ccccc3s2)c(Cl)c1)c1cccc(Br)c1O` [Compound 2, N-(4-(Benzo[d]thiazol-2-ylthio)-3-chlorophenyl)-3-bromo-2-hydroxybenzamide]: the IC50 on human HSP60/10 (setting [2]) is 6.9 µM; on human HSP60/10 (setting [3]) it was 6.92 µM. Also, the EC50 is 2.9 µM in assay [1] (setting [4]) and 2.88 µM in assay [1] (setting [5]).
In the case of `O=C(Nc1ccc(Sc2nc3ccccc3s2)cc1)c1cccc(Br)c1O` [Compound 6, N-(4-(Benzo[d]thiazol-2-ylthio)phenyl)-3-bromo-2-hydroxybenzamide], the IC50 on human HSP60/10 (setting [2]) is 26 µM; on human HSP60/10 (setting [3]), 25.7 µM. The EC50 in assay [1] (setting [4]) was 12 µM; in assay [1] (setting [5]), 11.5 µM.
On to `COc1c(Br)cccc1C(=O)Nc1ccc(Sc2nc3ccccc3s2)c(Cl)c1` [Compound 30, N-(4-(Benzo[d]thiazol-2-ylthio)-3-chlorophenyl)-3-bromo-2-methoxybenzamide], for which the IC50 on human HSP60/10 (setting [2]) and on human HSP60/10 (setting [3]) was above 100 µM each time. Further, the EC50 in assay [1] (setting [6]) and in assay [1] (setting [7]) was above 100 µM throughout.
Take `COc1ccc(Br)cc1C(=O)Nc1ccc(Sc2nc3ccccc3s2)cc1` [Compound 35, N-(4-(Benzo[d]thiazol-2-ylthio)phenyl)-5-bromo-2-methoxybenzamide]: the IC50 at human HSP60/10 (setting [2]) and at human HSP60/10 (setting [3]) was above 100 µM each time. Further, the EC50 in assay [1] (setting [6]) and in assay [1] (setting [7]) was above 100 µM in each case.
On to `COc1ccccc1C(=O)Nc1ccc(Sc2nc3ccccc3s2)c(Cl)c1` [Compound 32, N-(4-(Benzo[d]thiazol-2-ylthio)-3-chlorophenyl)-2-methoxybenzamide], for which the IC50 at human HSP60/10 (setting [2]) and at human HSP60/10 (setting [3]) was above 100 µM each time. The EC50 in assay [1] (setting [6]) and in assay [1] (setting [7]) was above 100 µM each time.
As to `O=C(Nc1cccc(Cl)c1)c1cccc(Br)c1` [Compound 24, 3-Bromo-N-(3-chlorophenyl)benzamide], the IC50 on human HSP60/10 (setting [2]) and at human HSP60/10 (setting [3]) was above 100 µM throughout. Also, the EC50 in assay [1] (setting [6]) and in assay [1] (setting [7]) was above 100 µM in each case.
As to `O=C(Nc1ccc(Sc2nc3ccccc3s2)c(Cl)c1)c1cccc(Br)c1` [Compound 18, N-(4-(Benzo[d]thiazol-2-ylthio)-3-chlorophenyl)-3-bromobenzamide], the IC50 on human HSP60/10 (setting [2]) and on human HSP60/10 (setting [3]) was above 100 µM throughout. Moreover, the EC50 in assay [1] (setting [6]) and in assay [1] (setting [7]) was above 100 µM throughout.
As for `COc1c(Br)cc(Br)cc1C(=O)Nc1ccccc1` [Compound 41, 3,5-Dibromo-2-methoxy-N-phenylbenzamide], the IC50 at human HSP60/10 (setting [2]) and at human HSP60/10 (setting [3]) was above 100 µM in each case. In addition, the EC50 in assay [1] (setting [6]) and in assay [1] (setting [7]) was above 100 µM throughout.
With `O=C(Nc1cccc(Cl)c1)c1cc(Br)cc(Br)c1` [Compound 23, 3,5-Dibromo-N-(3-chlorophenyl)benzamide], the IC50 at human HSP60/10 (setting [2]) and at human HSP60/10 (setting [3]) was above 100 µM throughout. Also, the EC50 in assay [1] (setting [6]) and in assay [1] (setting [7]) was above 100 µM in each case.
For the compound `O=C(Nc1ccc(Sc2nc3ccccc3s2)c(Cl)c1)c1cc(Br)cc(Br)c1` [Compound 17, N-(4-(Benzo[d]thiazol-2-ylthio)-3-chlorophenyl)-3,5-dibromobenzamide], the IC50 at human HSP60/10 (setting [2]) and at human HSP60/10 (setting [3]) was above 100 µM throughout. Besides, the EC50 in assay [1] (setting [6]) and in assay [1] (setting [7]) was above 100 µM in each case.
`COc1ccccc1C(=O)Nc1ccccc1` [Compound 44, 2-Methoxy-N-phenylbenzamide]: the IC50 on human HSP60/10 (setting [2]) and at human HSP60/10 (setting [3]) was above 100 µM in each case. For the same compound, the EC50 in assay [1] (setting [6]) and in assay [1] (setting [7]) was above 100 µM each time.
Turning to `O=C(Nc1cccc(Cl)c1)c1ccccc1` [Compound 25, N-(3-Chlorophenyl)benzamide], the IC50 at human HSP60/10 (setting [2]) and on human HSP60/10 (setting [3]) was above 100 µM throughout. For the same compound, the EC50 in assay [1] (setting [6]) and in assay [1] (setting [7]) was above 100 µM throughout.
On to `O=C(Nc1ccc(Sc2nc3ccccc3s2)cc1)c1cc(Br)ccc1O` [Compound 7, N-(4-(Benzo[d]thiazol-2-ylthio)phenyl)-5-bromo-2-hydroxybenzamide], for which the IC50 on human HSP60/10 (setting [2]) and on human HSP60/10 (setting [3]) was above 100 µM in each case. The EC50 in assay [1] (setting [4]) and in assay [1] (setting [5]) was above 100 µM each time.
`O=C(Nc1ccc(Sc2nc3ccccc3s2)c(Cl)c1)c1ccccc1O` [Compound 4, N-(4-(Benzo[d]thiazol-2-ylthio)-3-chlorophenyl)-2-hydroxybenzamide]: the IC50 at human HSP60/10 (setting [2]) and at human HSP60/10 (setting [3]) was above 100 µM throughout. Moreover, the EC50 in assay [1] (setting [6]) and in assay [1] (setting [7]) was above 100 µM each time.
